Structures are written as SMILES. Like-named read-outs stand apart in the source and are kept apart here. Where only a bound is given, the exact number is not on record here.

Assay [1] concerns the target T1, rGmolCSP8 (Grapholita molesta, UniProt A0A0M4FML8). Kind of assay: Fluorescence competitive binding assay (1-NPN displacement), wild-type. Here is the method: The fluorescence spectra were recorded using a fluorescence spectrophotometer (F-4500, Hitachi, Tokyo, Japan) in a 1 cm light path fluorimeter quartz cuvette with 10 nm slits for excitation and 20 nm slits for emission. […] The fluorescent probe N-phenyl-1-naphthylamine (1-NPN) and all putative ligands used in binding assays were dissolved in methanol (HPLC purity grade) to obtain a 1 mM stock solution. The rGmolCSP8 protein was diluted to in 20 mM Tris–HCl to obtain a 2 μM solution, pH 7.4. […] The fluorescent probe was excited at 337 nm and emission spectra were recorded from 370 to 550 nm. […] Binding data were obtained from three replicates assays for each concentration of each tested ligand.

Assay [2] concerns the target T1, rGmolCSP8. Kind of assay: Effect of pH on the binding affinity of rGmolCSP8. As to the method: Based on the fluorescent binding assays described above, we further assessed the effects of pH on the binding abilities of GmolCSP8 with strongly bound ligand. The binding affinities of rGmolCSP8 to the representative ligand 1- hexanol were measured at six different pH values (4.0, 5.0, 6.8, 7.4, 8.0, and 8.8) in 20 mM Tris–HCl buffer. pH was adjusted by titrating concentrated hydrochloric acid using a PHS-3E pH meter (Shanghai Precision Scientific Instrument Co., Ltd., Shanghai, China). The binding assays and data processing were performed as described previously.
FIGURE 7 Effects of pH on the binding affinities of rGmolCSP8 with 1-hexanol. The mixture solution of 2 μM rGmolCSP8 protein and 2 μM 1-NPN was titrated with 1 mM 1-hexanol stock solution to final concentrations of 22 μM. All data represent a mean of three independent measurements, and the bars denote mean ± SEM.

Assay [3] deals with T2, GmolCSP8-L80A (Grapholita molesta, UniProt A0A0M4FML8, L95A). Kind of assay: biochemical. In kind it is binding. As to the method: (§1) To determine whether GmolCSP8 is involved in odorant binding, fluorescence competitive binding assays were performed ([Zhong et al., 2012]). The fluorescence spectra were recorded using a fluorescence spectrophotometer (F-4500, Hitachi, Tokyo, Japan) in a 1 cm light path fluorimeter quartz cuvette with 10 nm slits for excitation and 20 nm slits for emission. The selected chemicals are listed in Table 2, and included four sex pheromone components and 34 volatiles from different host plants (peach and pear trees) of G. molesta based on previous investigations ([Natale et al., 2004]; [Lu et al., 2012]; [Najar-Rodriguez et al., 2013b]). The fluorescent probe N-phenyl-1-naphthylamine (1-NPN) and all putative ligands used in binding assays were dissolved in methanol (HPLC purity grade) to obtain a 1 mM stock solution. The rGmolCSP8 protein was diluted to in 20 mM Tris–HCl to obtain a 2 μM solution, pH 7.4. To measure the binding affinity of 1-NPN for GmolCSP8, a 2 μM solution of protein was titrated with aliquots of 1 mM 1-NPN prepared to final concentrations ranging from 1 to 22 μM. The fluorescent probe was excited at 337 nm and emission spectra were recorded from 370 to 550 nm. […] Binding data were obtained from three replicates assays for each concentration of each tested ligand. Dissociation constants (Kd) of protein to 1-NPN were calculated by non-linear regression, using GraphPad Prism 4.00 software (GraphPad Software Inc.). The inhibition constants (Ki) of the competitors were determined using the corresponding IC50 values (concentration of competitor that reduced the initial fluorescence intensity by half) based on the following equation: Ki = [IC50]/(1+[1-NPN]/K1-NPN), where [1-NPN] is the free concentration of 1-NPN and K1-NPN is the dissociation constant of the complex GmolCSP8/1-NPN.
(§2) To verify the four predicted key amino acid sites of GmolCSP8 binding for 1-hexanol, recombinant plasmids for four CSP8 mutants were obtained via site-directed mutagenesis experiments. Specific primers introducing mutation sites of the four key amino acid CSP8 plasmids (GmolCSP8-T27A, GmolCSP8-L30A, GmolCSP8-V40A, and GmolCSP8-L80A) were designed and are listed in Table 1. The four mutants were mutated by using the TaKaRa MutanBEST Kit (TaKaRa, Shiga, Japan) with the pMD®19-T/GmolCSP8 plasmid DNA as template. All plasmids containing mutations were validated by sequencing with five randomly selected single colonies. pMD®19-T plasmids including four CSP8 mutants were digested with Bam HI and Hind III restriction enzymes. Then, the target sequences were ligated into the expression vector pET28a (+) and transformed into BL21 (DE3) competent cells for expression. After sequencing verification, the corresponding rGmolCSP8 mutant proteins were induced and purified, and the binding affinities to 1-hexanol and its analogs were verified via ligand-binding assays according to the method described above.

Assay [4] concerns the target T3, GmolCSP8-V40A (Grapholita molesta, UniProt A0A0M4FML8, V55A). Kind of assay: biochemical. It is filed as binding. Here is the method: as §1, §2
In assay [5] the target is T4, GmolCSP8-L30A (Grapholita molesta, UniProt A0A0M4FML8, L45A). Kind of assay: biochemical. It is filed as binding. As to the method:
as §1, §2

Assay [6] deals with T5, GmolCSP8-T27A (Grapholita molesta, UniProt A0A0M4FML8, T42A). Kind of assay: biochemical. It is filed as binding. As to the method: as §1, §2
The target in assay [7] is GmolOBP15. The arrangement: method as in Li et al., 2016a,b. To be noted: ref Li et al., 2016a,b; cited from earlier work.
Assay [8] addresses GmolOBP8. Also on record: method as in Li et al., 2016a,b. To be noted: ref Li et al., 2016a,b; cited from earlier work.
The target in assay [9] is GmolGOBP2. The arrangement: method as in Li et al., 2016a,b. To be noted: ref Li et al., 2016a,b; cited from earlier work.
For assay [10], the target named is T1, rGmolCSP8. Kind of assay: Titration of protein with fluorescent probe 1-NPN, wild-type. To be noted: wild-type rGmolCSP8, 2 μM protein, pH 7.4; read-out: Kd (dissociation constant) of 1-NPN. In kind it is binding. As to the method: (§3) To determine whether GmolCSP8 is involved in odorant binding, fluorescence competitive binding assays were performed ([Zhong et al., 2012]). The fluorescence spectra were recorded using a fluorescence spectrophotometer (F-4500, Hitachi, Tokyo, Japan) in a 1 cm light path fluorimeter quartz cuvette with 10 nm slits for excitation and 20 nm slits for emission. The selected chemicals are listed in Table 2, and included four sex pheromone components and 34 volatiles from different host plants (peach and pear trees) of G. molesta based on previous investigations ([Natale et al., 2004]; [Lu et al., 2012]; [Najar-Rodriguez et al., 2013b]). […] The fluorescent probe was excited at 337 nm and emission spectra were recorded from 370 to 550 nm. […] Dissociation constants (Kd) of protein to 1-NPN were calculated by non-linear regression, using GraphPad Prism 4.00 software (GraphPad Software Inc.). The inhibition constants (Ki) of the competitors were determined using the corresponding IC50 values (concentration of competitor that reduced the initial fluorescence intensity by half) based on the following equation: Ki = [IC50]/(1+[1-NPN]/K1-NPN), where [1-NPN] is the free concentration of 1-NPN and K1-NPN is the dissociation constant of the complex GmolCSP8/1-NPN.
FIGURE 5 Binding curve and relative Scatchard plot of 1-NPN to rGmolCSP8. […] The calculated dissociation constant of rGmolCSP8 was 13.85 μM. […]

For assay [11], the target named is T5, GmolCSP8-T27A. Kind of assay: Titration of protein with fluorescent probe 1-NPN, mutant T27A. In kind it is binding. As to the method: as §3, with “GmolCSP8/1-NPN. […]” for “GmolCSP8/1-NPN.”
In assay [12] the target is T4, GmolCSP8-L30A. Kind of assay: Titration of protein with fluorescent probe 1-NPN, mutant L30A. It is filed as binding. Here is the method: as §3, with “GmolCSP8/1-NPN. […]” for “GmolCSP8/1-NPN.”
Assay [13] addresses T3, GmolCSP8-V40A. Kind of assay: Titration of protein with fluorescent probe 1-NPN, mutant V40A. In kind it is binding. As to the method:
as §3, with “GmolCSP8/1-NPN. […]” for “GmolCSP8/1-NPN.”

For assay [14], the target named is T2, GmolCSP8-L80A. Kind of assay: Titration of protein with fluorescent probe 1-NPN, mutant L80A. In kind it is binding. Here is the method: as §3, with “GmolCSP8/1-NPN. […]” for “GmolCSP8/1-NPN.”

T4 sequence (A0A0M4FML8 entry or part of it L45A): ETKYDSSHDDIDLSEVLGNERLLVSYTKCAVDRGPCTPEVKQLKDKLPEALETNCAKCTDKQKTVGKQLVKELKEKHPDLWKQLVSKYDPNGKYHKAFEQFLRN
T1 sequence (A0A0M4FML8 entry or part of it): as the sequence (A0A0M4FML8 entry or part of it L45A) above, with A30L counted along it
T5 sequence (A0A0M4FML8 entry or part of it T42A): as the sequence (A0A0M4FML8 entry or part of it L45A) above, with T27A, A30L counted along it
T3 sequence (A0A0M4FML8 entry or part of it V55A): as the sequence (A0A0M4FML8 entry or part of it L45A) above, with A30L, V40A counted along it
T2 sequence (A0A0M4FML8 entry or part of it L95A): as the sequence (A0A0M4FML8 entry or part of it L45A) above, with A30L, L80A counted along it

As usually defined, the IC50 is the midpoint of a concentration-inhibition curve. The term Ki denotes a measure of affinity in units of concentration, obtained from inhibition or displacement. Consider `CCCCCCO` [1-hexanol], for which the concentration for half-maximal inhibition (IC50) in assay [1] was 2.26 ± 0.34 µM; in [6], over 24 µM. For the same molecule, the “binding to rGmolCSP8 (in words)” value in assay [1] (wild-type rGmolCSP8, pH 7.4) is “strongest binding affinities”. Also, the “binding affinity (in words)” value in [2] (pH 4.0) was “very weak affinity”; in assay [2] (pH 6.8–8.0), “strong binding affinity”. Further, the “effect of pH on binding affinity (in words)” value in assay [2] (pH 4.0, 5.0, 6.8, 7.4, 8.0, 8.8 in 20 mM Tris-HCl) was “higher at pH 6.8–8.0 than at pH 4.0–5.0 and 8.8”. The Ki in assay [3] was 1.8 ± 0.15 µM; in [4] it was 2.67 ± 0.34 µM; in assay [5], 12.5 ± 1.12 µM; in assay [6] (read-out: Ki (μM) T27A, mutant T27A, – = did not displace 50% 1-NPN at ligand up to 24 μM), over 24 µM. The “fold decrease in binding vs wild-type” value in assay [5] (mutant L30A compared with wild-type rGmolCSP8) came out at 6 fold. For the same molecule, in assay [6] (mutant T27A compared with wild-type), the “binding to mutant T27A (in words)” value is on record as “abolished the ability to bind”.
As to `CCCCCCCCCCCCO` [1-dodecanol], the IC50 in assay [1] (2 μM rGmolCSP8 and 2 μM 1-NPN, 20 mM Tris-HCl pH 7.4, read-out: IC50) worked out at 13.5 ± 0.83 µM. For the same molecule, the Ki was 12.9 ± 0.56 µM in [1] (2 μM rGmolCSP8 and 2 μM 1-NPN, pH 7.4, calculated from IC50, read-out: Ki); 3.24 µM in assay [7]; 4.39 µM in assay [8]; 1.22 µM in [9]. The “binding affinity class (strong/medium/weak)” value in assay [1] (wild-type rGmolCSP8, pH 7.4) is “medium (an IC50 value between 10 and 20 μM indicated that ligands demonstrated medium binding ability to protein)”.
What is called Kd is the free concentration of one partner at which half of the binding sites on the other are occupied at equilibrium, for simple one-to-one binding. `c1ccc(Nc2cccc3ccccc23)cc1` [1-NPN, N-phenyl-1-naphthylamine]: the Kd turned out to be 13.8 µM in assay [10]; 11.2 µM in assay [11]; 14.4 µM in [12]; 11.8 µM in assay [13]; 11.7 µM in [14].

The values are drawn from article PMC6516043, “Functional Analysis of the Chemosensory Protein GmolCSP8 From the Oriental Fruit Moth, Grapholita molesta (Busck) (Lepidoptera: Tortricidae)” (Frontiers in Physiology, 2019).
